Laboratory results as given in patent US6372777B1, “Cyclic AMP-specific phosphodiesterase inhibitors” (ICOS Corporation, priority 1999, dated 2002).
pEC50, pIC50: −log10 of the molar value.

Legend:
human recombinant PDE4 = molecular target: T1, human recombinant PDE4 (Homo sapiens, UniProt Q07343); experiment: Inhibition of human recombinant PDE4 (IC50); type: biochemical
T1 construct: made in house; host or cells: Saccharomyces cerevisiae BJ2-54 (strain YI23 harboring HDUN2.32, if PDE4B)

[1] = system: human peripheral blood lymphocytes; experiment: Lipopolysaccharide-stimulated TNFα release from human peripheral blood lymphocytes; type: cell-based; settings: Homo sapiens, Lymphocyte; LPS-stimulated TNFα release; read-out: PBL/TNFα EC50
Method: The compounds of structural formulae (I) and (II) also were tested for an ability to reduce TNFα secretion in human peripheral blood lymphocytes. The ability to reduce TNFα secretion is related to the EC50 values (i.e., the effective concentration of the compound capable of inhibiting 50% of the total TNFα). To assess the ability of a compound to reduce TNFα secretion in human peripheral blood lymphocytes (PBL), the following tests were performed. […] Heparinized blood (approximately 30 mL) drawn from human volunteers was mixed 1:1 with Dulbecco's modified phosphate-buffered saline. This mixture was mixed 1:1 with HISTOPAQUE and centrifuged at 1,500 rpm at room temperature without braking in the swinging bucket of a Beckman model TJ6 centrifuge. Erythrocytes were centrifuged to the bottom of the tubes, and serum remained at the surface of the tubes. A layer containing lymphocytes sedimented between the serum and HISTOPAQUE® layers, and was removed by aspiration to a fresh tube. The cells were quantified and adjusted to 3×10^6 cells/mL and a 100 μL aliquot is placed into the wells of a 96 well plate. Test compounds and RPMI media (Gibco/BRL Life Sciences) are added to each of the wells 15 minutes prior to addition of bacterial LPS ([…]). The mixture was allowed to incubate for 20 hours at 37° C. in a humidified chamber. The cells then were separated by centrifuging at 800 rpm for 5 minutes at room temperature. An aliquot of 80 µL of supernatant was transferred to a new plate or determination of TNFα concentration. TNFα protein in the cell supernatant fluids was measured using a commercially available enzyme-linked immunosorbent assay (ELISA) (CYTOSCREEN® Immunoassay Kit from Biosource International). The cell-based assay provided the following results for various compounds of the present invention. The EC50 values (i.e., effective concentration of the compound capable of inhibiting 50% of the total TNFα ) illustrate the ability of the present compounds to inhibit LPS-stimulated TNFα release from human PBL.

T1 sequence (Q07343 1-564 isoform Q07343-2): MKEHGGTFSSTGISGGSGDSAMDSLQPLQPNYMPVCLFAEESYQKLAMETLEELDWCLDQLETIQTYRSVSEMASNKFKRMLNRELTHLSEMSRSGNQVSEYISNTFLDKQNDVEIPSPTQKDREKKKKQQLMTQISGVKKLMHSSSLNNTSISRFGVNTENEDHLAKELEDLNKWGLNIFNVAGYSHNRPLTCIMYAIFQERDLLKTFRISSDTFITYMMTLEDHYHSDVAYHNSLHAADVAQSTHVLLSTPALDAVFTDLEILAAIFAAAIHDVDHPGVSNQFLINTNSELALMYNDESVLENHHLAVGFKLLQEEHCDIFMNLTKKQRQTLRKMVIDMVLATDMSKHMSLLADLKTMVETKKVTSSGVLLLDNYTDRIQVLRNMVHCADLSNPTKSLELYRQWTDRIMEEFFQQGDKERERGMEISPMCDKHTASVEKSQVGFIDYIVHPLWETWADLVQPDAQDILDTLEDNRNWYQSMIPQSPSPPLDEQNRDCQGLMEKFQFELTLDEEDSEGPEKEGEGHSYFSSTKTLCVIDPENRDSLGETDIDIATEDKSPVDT

Row | SMILES | pIC50 (human recombinant PDE4) | pEC50 [1]
1 | CCOC(=O)c1cc(C)n(-c2ccc([N+](=O)[O-])cc2)c1-c1ccccc1 [Example 36, 5-Methyl-1-(4-nitrophenyl)-2-phenyl-1H-pyrrole-3-carboxylic acid ethyl ester] | 3.96 | –
2 | CCOC(=O)c1cc(C)n(-c2cccnc2)c1-c1ccccc1 [Example 32, 5-Methyl-2-phenyl-1-pyridin-3-yl-1H-pyrrole-3-carboxylic acid ethyl ester] | 4.87 | –
3 | CCOC(=O)c1cc(-c2ccccc2)n(-c2cccc(S(C)(=O)=O)c2)c1C [Example 10, 1-(3-Methanesulfonylphenyl)-2-methyl-5-phenyl-1H-pyrrole-3-carboxylic acid ethyl ester] | 5.36 | –
4 | CCOC(=O)c1cc(-c2ccccc2)n(-c2cccc(Br)c2)c1C [Example 26, 1-(3-Bromophenyl)-2-methyl-5-phenyl-1H-pyrrole-3-carboxylic acid ethyl ester] | 5.51 | –
5 | CCOC(=O)c1cc(C)n(-c2cccc(C(F)(F)F)c2)c1-c1ccccc1 [Example 29, 5-Methyl-2-phenyl-1-(3-trifluoro-methylphenyl)-1H-pyrrole-3-carboxylic acid ethyl ester] | 5.17 | –
6 | CCOC(=O)c1cc(C)n(-c2cccc(S(C)(=O)=O)c2)c1-c1ccccc1 [Example 9, 1-(3-Methanesulfonylphenyl)-5-methyl-2-phenyl-1H-pyrrole-3-carboxylic acid ethyl ester] | 5.34 | –
7 | CCOC(=O)c1cc(-c2ccccc2)n(-c2ccc([N+](=O)[O-])cn2)c1C [Example 35, 2-Methyl-1-(5-nitropyridin-2-yl)-5-phenyl-1H-pyrrole-3-carboxylic acid ethyl ester] | 5.24 | –
8 | CCOC(=O)c1cc(C)n(-c2cccc(N)c2)c1-c1ccccc1 [Example 40, 1-(3-Aminophenyl)-5-methyl-2-phenyl-1H-pyrrole-3-carboxylic acid ethyl ester] | 5.89 | 5.17
9 | CCOC(=O)c1cc(C)n(-c2cccc(Br)c2)c1-c1ccccc1 [Example 6, 1-(3-Bromophenyl)-5-methyl-2-phenyl-1H-pyrrole-3-carboxylic acid ethyl ester] | 5.07 | –
10 | CCOC(=O)c1cc(-c2ccccc2)n(-c2cccc(N(C)C)c2)c1C [Example 1, 1-(3-Dimethylaminophenyl)-2-methyl-5-phenyl-1H-pyrrole-3-carboxylic acid ethyl ester] | 5.09 | –
11 | CCOC(=O)c1cc(-c2ccccc2)n(-c2cccnc2)c1C [Example 19, 2-Methyl-5-phenyl-1-pyridin-3-yl-1H-pyrrole-3-carboxylic acid ethyl ester] | 5.89 | –
12 | CCOC(=O)c1cc(-c2ccccc2)n(-c2cccc(C(F)(F)F)c2)c1C [Example 28, 2-Methyl-5-phenyl-1-(3-trifluoro-methylphenyl)-1H-pyrrole-3-carboxylic acid ethyl ester] | 5.64 | –
13 | CCOC(=O)c1cc(-c2ccccc2)n(Cc2cccc([N+](=O)[O-])c2)c1C [Example 30, 2-Methyl-1-(3-nitrobenzyl)-5-phenyl-1H-pyrrole-3-carboxylic acid ethyl ester] | 4.87 | –
14 | CCOC(=O)c1cc(-c2ccccc2)n(-c2cccc(F)c2)c1C [Example 18, 1-(3-Fluorophenyl)-2-methyl-5-phenyl-1H-pyrrole-3-carboxylic acid ethyl ester] | 6.21 | –
15 | CCOC(=O)c1cc(C)n(-c2cccc(C(N)=O)c2)c1-c1ccccc1 [Example 12, 1-(3-Carbamoylphenyl)-5-methyl-2-phenyl-1H-pyrrole-3-carboxylic acid ethyl ester] | 6.66 | –
16 | CCOC(=O)c1cc(-c2ccccc2)n(-c2cccc(N)c2)c1C [Example 41, 1-(3-Aminophenyl)-2-methyl-5-phenyl-1H-pyrrole-3-carboxylic acid ethyl ester] | 5.85 | –
17 | CCOC(=O)c1cc(-c2ccccc2)n(-c2ccccc2[N+](=O)[O-])c1C [Example 34, 2-Methyl-1-(2-nitrophenyl)-5-phenyl-1H-pyrrole-3-carboxylic acid ethyl ester] | 5.78 | –
18 | CCOC(=O)c1cc(-c2ccccc2)n(-c2cccc(C(C)=O)c2)c1C [Example 8, 1-(3-Acetylphenyl)-2-methyl-5-phenyl-1H-pyrrole-3-carboxylic acid ethyl ester] | 6.23 | –
19 | CCOC(=O)c1cc(-c2ccccc2)n(-c2ccc(N)cc2)c1C [Example 38, 1-(4-Aminophenyl)-2-methyl-5-phenyl-1H-pyrrole-3-carboxylic acid ethyl ester] | 5.89 | –

Row | SMILES | pIC50 (human recombinant PDE4) | pEC50 [1]
20 | CCOC(=O)c1cc(-c2ccccc2)n(-c2cccc(C)c2)c1C [Example 5, 2-Methyl-5-phenyl-l-m-tolyl-1H-pyrrole-3-carboxylic acid ethyl ester] | 5.21 | –
21 | CCOC(=O)c1cc(C)n(Cc2cccc([N+](=O)[O-])c2)c1-c1ccccc1 [Example 31, 5-Methyl-1-(3-nitrobenzyl)-2-phenyl-1H-pyrrole-3-carboxylic acid ethyl ester] | 5.29 | –
22 | CCOC(=O)c1cc(C)n(-c2cc(C(F)(F)F)cc(C(F)(F)F)c2)c1-c1ccccc1 [Example 45, 1-(3,5-Bis-trifluoromethylphenyl)-5-methyl-2-phenyl-1H-pyrrole-3-carboxylic acid ethyl ester] | 3.71 | –
23 | CCOC(=O)c1cc(C)n(-c2ccc([N+](=O)[O-])cn2)c1-c1ccccc1 [Example 23, 5-Methyl-1-(5-nitropyridin-2-yl)-2-phenyl-1H-pyrrole-3-carboxylic acid ethyl ester] | 3.88 | –
24 | CCOC(=O)c1cc(C)n(-c2ccccc2)c1-c1ccccc1 [Example 21, 5-Methyl-1,2-diphenyl-1H-pyrrole-3-carboxylic acid ethyl ester] | – | 5.00
25 | CCOC(=O)c1cccc(-n2c(C)cc(C(=O)OCC)c2-c2ccccc2)c1 [Example 46, 1-(3-Ethoxycarbonylphenyl)-5-methyl-2-phenyl-1H-pyrrole-3-carboxylic acid ethyl ester] | 5.06 | –
26 | CCOC(=O)c1cc(C)n(-c2cccc(C(=O)O)c2)c1-c1ccccc1 [Example 24, 1-(3-Carboxyphenyl)-5-methyl-2-phenyl-1H-pyrrole-3-carboxylic acid ethyl ester] | 4.78 | –
27 | CCOC(=O)c1cc(C)n(-c2cccc(C(C)=O)c2)c1-c1ccccc1 [Example 7, 1-(3-Acetylphenyl)-5-methyl-2-phenyl-1H-pyrrole-3-carboxylic acid ethyl ester] | 5.17 | –
28 | CCOC(=O)c1cc(C)n(-c2cccc(C)c2)c1-c1ccccc1 [Example 4, 5-Methyl-2-phenyl-1-m-tolyl-1H-pyrrole-3-carboxylic acid ethyl ester] | 5.54 | –
29 | CCOC(=O)c1cc(C)n(-c2cccc(F)c2)c1-c1ccccc1 [Example 17, 1-(3-Fluorophenyl)-5-methyl-2-phenyl-1H-pyrrole-3-carboxylic acid ethyl ester] | 4.88 | –
30 | CCOC(=O)c1cc(C)n(-c2cccc([N+](=O)[O-])c2)c1-c1ccccc1 [Example 39, 1-(3-Nitrophenyl)-5-methyl-2-phenyl-1H-pyrrole-3-carboxylic acid ethyl ester] | 6.70 | –
31 | CCOC(=O)c1cc(C)n(-c2cccc(N(C)C)c2)c1-c1ccccc1 [Example 13, 1-(3-Dimethylaminophenyl)-5-methyl-2-phenyl-1H-pyrrole-3-carboxylic acid ethyl ester] | 6.82 | –
32 | CCOC(=O)c1cc(C)n(-c2cccc(Cl)c2)c1-c1ccccc1 [Example 2, 1-(3-Chlorophenyl)-5-methyl-2-phenyl-1H-pyrrole-3-carboxylic acid ethyl ester] | 5.26 | –
33 | CCOC(=O)c1cc(-c2ccccc2)n(-c2ccc([N+](=O)[O-])cc2)c1C [Example 33, 2-Methyl-1-(4-nitrophenyl) -5-phenyl-1H-pyrrole-3-carboxylic acid ethyl ester] | 5.85 | –
34 | CCOC(=O)c1cc(-c2ccccc2)n(-c2cccc(C(N)=O)c2)c1C [Example 11, 1-(3-Carbamoylphenyl)-2-methyl-5-phenyl-1H-pyrrole-3-carboxylic acid ethyl ester] | 5.26 | –
35 | CCOC(=O)c1cc(C)n(-c2ccc(N)cc2)c1-c1ccccc1 [Example 37, 1-(4-Aminophenyl)-5-methyl-2-phenyl-1H-pyrrole-3-carboxylic acid ethyl ester] | 4.80 | –
36 | Cc1cc(C(=O)O)c(-c2ccccc2)n1-c1cccc([N+](=O)[O-])c1 [Example 43, 5-Methyl-1-(3-nitrophenyl)-2-phenyl-1H-pyrrole-3-carboxylic acid] | 4.81 | –
37 | CCOC(=O)c1cc(-c2ccccc2)n(C2CCCCC2)c1C [Example 20, 1-Cyclohexyl-2-methyl-5-phenyl-1H-pyrrole-3-carboxylic acid ethyl ester] | 6.00 | –
